Tests used:
Format in all cases: in vivo
[1] = system: Amaranthus palmeri (AMAPA); experiment: Pre-emergence herbicidal test, Amaranthus palmeri (AMAPA); settings: 250 g/ha, evaluated after 13 days, glasshouse
[2] = system: Setaria faberi (SETFA); experiment: Post-emergence herbicidal test, Setaria faberi (SETFA); settings: 250 g/ha, sprayed after 8 days cultivation, evaluated after 13 days, glasshouse
Method: (§1) Seeds of a variety of test species are sown in standard soil in pots (Setaria faberi (SETFA), Echinochloa crus-galli (ECHCG), Amaranthus palmeri (AMAPA), Zea mays (ZEAMX), Amaranthus retoflexus (AMARE),). After 8 days cultivation under controlled conditions in a glasshouse (at 24° C./16° C., day/night; 14 hours light; 65% humidity), the plants are sprayed with an aqueous spray solution derived from the formulation of the technical active ingredient in acetone/water (50:50) solution containing 0.5% Tween 20 (polyoxyethelyene sorbitan monolaurate, CAS RN 9005-64-5). Compounds are applied at 250 g/ha unless otherwise stated. The test plants are then grown in a glasshouse under controlled conditions in a glasshouse (at 24° C./16° C., day/night; 14 hours light; 65% humidity) and watered twice daily. After 13 days the test is evaluated for the percentage damage caused to the plant. The biological activities are shown in the following table on a five-point scale (5=81-100%; 4=61-80%; 3=41-60%; 2=21-40%; 1=1-20%; 0=no activity; -=not tested).

[3] = system: Echinochloa crus-galli (ECHCG); experiment: Pre-emergence herbicidal test, Echinochloa crus-galli (ECHCG); settings: 250 g/ha, evaluated after 13 days, glasshouse
[4] = system: Amaranthus retoflexus (AMARE); experiment: Post-emergence herbicidal test, Amaranthus retoflexus (AMARE); settings: 250 g/ha, sprayed after 8 days cultivation, evaluated after 13 days, glasshouse
Method: as §1

[5] = system: Zea mays (ZEAMX); experiment: Post-emergence test, Zea mays (ZEAMX); set-up: key: 5: 81-100%; 4: 61-80%; 3: 41-60%; 21-40%; 1-20%; 0: no activity; -: not tested; settings: 250 g/ha, sprayed after 8 days cultivation, evaluated after 13 days, glasshouse, crop
Method: as §1

[6] = system: Setaria faberi (SETFA); experiment: Pre-emergence herbicidal test, Setaria faberi (SETFA); settings: 250 g/ha, evaluated after 13 days, glasshouse
[7] = system: Zea mays (ZEAMX); experiment: Pre-emergence test, Zea mays (ZEAMX); settings: 250 g/ha, evaluated after 13 days, glasshouse, crop
[8] = system: Amaranthus palmeri (AMAPA); experiment: Post-emergence herbicidal test, Amaranthus palmeri (AMAPA); settings: 250 g/ha, sprayed after 8 days cultivation, evaluated after 13 days, glasshouse
Method: as §1

[9] = system: Echinochloa crus-galli (ECHCG); experiment: Post-emergence herbicidal test, Echinochloa crus-galli (ECHCG); settings: 250 g/ha, sprayed after 8 days cultivation, evaluated after 13 days, glasshouse
Method: as §1

[10] = system: Amaranthus retoflexus (AMARE); experiment: Pre-emergence herbicidal test, Amaranthus retoflexus (AMARE); settings: 250 g/ha, evaluated after 13 days, glasshouse

Question: With `CCn1c(Cl)cc(=O)c(C(=O)O)c1-c1ccc(Cl)c(Cl)c1` [Compound 2, 6-chloro-2-(3,4-dichlorophenyl)-1-ethyl-4-oxo-pyridine-3-carboxylic acid] as the compound, how does the “percentage damage caused to the plant, AMAPA” value [1] read?
Answer: 2 (21-40%)

Question: What about the “percentage damage caused to the plant, SETFA” value [2] of the same compound?
Answer: 4 (61-80%)

Question: And the “percentage damage caused to the plant, ECHCG” value [3]?
Answer: 3 (41-60%)

Question: What about the “percentage damage caused to the plant, AMARE” value [4] of the same compound?
Answer: 1 (1-20%)

Question: What about the “percentage damage caused to the plant, ZEAMX” value [5] of the same compound?
Answer: 0

Question: And the “percentage damage caused to the plant, SETFA” value [6]?
Answer: 5 (81-100%)

Question: What about the “percentage damage caused to the plant, ZEAMX” value [7] of the same compound?
Answer: 1 (1-20%)

Question: And the “percentage damage caused to the plant, AMAPA” value [8]?
Answer: 1 (1-20%)

Question: And the “percentage damage caused to the plant, ECHCG” value [9]?
Answer: 3 (41-60%)

Question: What about the “percentage damage caused to the plant, AMARE” value [10] of the same compound?
Answer: 3 (41-60%)

Reference: US20260293895A1, “HERBICIDAL DERIVATIVES” (SYNGENTA CROP PROTECTION AG, priority 2023, published 2026)
